From US8883796B2, “Biphenyl derivatives, pharmaceutical composition comprising the same, and preparation method thereof” (Korea Institute of Science and Technology, priority 2013, dated 2014)

Biological target: T1, Human recombinant 5-HT7 receptor (Homo sapiens, UniProt P34969)
T1 construct: expressed in transfected cells; host or cells: CHO cells (membrane preparation)
Test: Binding affinity for 5-HT7 serotonin receptor ([3H]LSD radioligand binding)
Conditions: 1 nM [3H]LSD, human recombinant 5-HT7 receptor expressed in CHO cells; for Ki: 25° C., 90 minutes; for inhibition at 10 µM: 10 μM test compound
Experimental: % inhibition at 10 μM and binding affinity (Ki) of the novel compound represented by the Chemical Formula 1 according to the present disclosure for the 5-HT7 serotonin receptor were measured as follows.
Human recombinant 5-HT7 receptor expressed in CHO cells was used. A reaction mixture (final concentration 0.25 mL) prepared from 1 nM [^3H]LSD, 5-HT7 receptor membrane (15 μg/well), test compound of various concentrations and 50 mM Tris-HCl buffer (pH 7.4) containing 10 mM MgCl2 and 0.1 mM EDTA was incubated at 25° C. for 90 minutes. After the incubation, reaction was terminated by rapid filtration through Whatman GF/C glass fiber filter previously soaked in 0.3% polyethyleneimine using a Brandel harvester and washed with cold 50 mM Tris-HCl buffer. The filter was covered with MeltiLex, sealed in a sample bag and dried in an oven. Counting was carried out using MicroBeta (Wallac). Nonspecific binding was measured in the presence of 0.5 μM mianserin. The Ki value of the test compound was obtained from nonlinear regression analysis (GraphPad Prism Program, San Diego, USA) of isotherms obtained by repeating experiments 3 times in duplicate test tubes at 10-11 varied concentrations.
The % inhibition at 10 μM and binding affinity (Ki) of the novel compound according to the present disclosure for the 5-HT7 serotonin receptor are given in Table 1.

T1 sequence (P34969 whole entry): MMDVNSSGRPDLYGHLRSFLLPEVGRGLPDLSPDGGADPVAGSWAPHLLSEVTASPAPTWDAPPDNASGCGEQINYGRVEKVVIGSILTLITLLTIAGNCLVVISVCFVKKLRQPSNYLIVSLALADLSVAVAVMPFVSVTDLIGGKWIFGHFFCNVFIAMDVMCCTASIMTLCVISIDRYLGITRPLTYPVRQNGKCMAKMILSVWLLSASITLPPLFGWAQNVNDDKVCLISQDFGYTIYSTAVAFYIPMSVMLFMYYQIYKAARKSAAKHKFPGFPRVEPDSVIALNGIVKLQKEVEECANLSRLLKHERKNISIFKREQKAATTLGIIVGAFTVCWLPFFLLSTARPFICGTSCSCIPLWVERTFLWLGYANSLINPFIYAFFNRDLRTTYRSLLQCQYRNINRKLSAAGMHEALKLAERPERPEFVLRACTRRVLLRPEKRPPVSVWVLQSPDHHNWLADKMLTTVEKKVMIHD

Row | SMILES | Ki [nM] | inhibition at 10 µM [%]
1 | CCOc1ccccc1N1CCN(Cc2ccccc2-c2ccccc2)CC1 [Compound 9, 1-(biphenyl-2-ylmethyl)-4-(2-ethoxyphenyl)piperazine] | 192 | 86.2
2 | Cc1cccc(N2CCN(Cc3cccc(-c4ccccc4)c3)CC2)c1 [Compound 47, 1-(biphenyl-3-ylmethyl)-4-(3-methylphenyl)piperazine] | 15 | 95.4
3 | Clc1ccccc1N1CCN(Cc2cccc(-c3ccccc3)c2)CC1 [Compound 38, 1-(biphenyl-3-ylmethyl)-4-(2-chlorophenyl)piperazine] | 66 | 88.3
4 | c1ccc(-c2ccccc2CN2CCN(c3ccccc3)CC2)cc1 [Compound 1, 1-(biphenyl-2-ylmethyl)-4-phenylpiperazine] | 537 | 59.7
5 | COc1ccccc1N1CCN(Cc2ccccc2-c2ccccc2)CC1 [Compound 8, 1-(biphenyl-2-ylmethyl)-4-(2-methoxyphenyl)piperazine] | 432 | 95.1
6 | CC(C)c1ccccc1N1CCN(Cc2ccccc2-c2ccccc2)CC1 [Compound 23, 1-(biphenyl-2-ylmethyl)-4-(2-isopropylphenyl)piperazine] | 274 | 87
7 | Cc1ccc(C)c(N2CCN(Cc3ccccc3-c3ccccc3)CC2)c1 [Compound 21, 1-(biphenyl-2-ylmethyl)-4-(2,5-dimethylphenyl)piperazine] | 658 | 93.8
8 | FC(F)(F)c1cccc(N2CCN(Cc3ccccc3-c3ccccc3)CC2)c1 [Compound 25, 1-(biphenyl-2-ylmethyl)-4-(3-(trifluoromethyl)phenyl)piperazine] | 64 | 95.9
9 | Cc1cc(C)cc(N2CCN(Cc3ccccc3-c3ccccc3)CC2)c1 [Compound 22, 1-(biphenyl-2-ylmethyl)-4-(3,5-dimethylphenyl)piperazine] | 367 | 84
10 | Fc1cccc(N2CCN(Cc3cccc(-c4ccccc4)c3)CC2)c1 [Compound 36, 1-(biphenyl-3-ylmethyl)-4-(3-fluorophenyl)piperazine] | 79 | 91.3
11 | c1ccc(-c2ccccc2CN2CCN(c3ccccc3-c3ccccc3)CC2)cc1 [Compound 24, 1-(biphenyl-2-ylmethyl)-4-(biphenyl-2-yl)piperazine] | 256 | 93.8
